# From patent US9957271B2, “Substituted bicyclic aza-heterocycles and analogues as sirtuin modulators” (GlaxoSmithKline, LLC, priority 2012, dated 2018)
# Read-outs that look alike come from different tables or passages of the source.
# Target: T1, SIRT1 (Homo sapiens, UniProt Q96EB6)
# T1 sequence (Q96EB6 1-747): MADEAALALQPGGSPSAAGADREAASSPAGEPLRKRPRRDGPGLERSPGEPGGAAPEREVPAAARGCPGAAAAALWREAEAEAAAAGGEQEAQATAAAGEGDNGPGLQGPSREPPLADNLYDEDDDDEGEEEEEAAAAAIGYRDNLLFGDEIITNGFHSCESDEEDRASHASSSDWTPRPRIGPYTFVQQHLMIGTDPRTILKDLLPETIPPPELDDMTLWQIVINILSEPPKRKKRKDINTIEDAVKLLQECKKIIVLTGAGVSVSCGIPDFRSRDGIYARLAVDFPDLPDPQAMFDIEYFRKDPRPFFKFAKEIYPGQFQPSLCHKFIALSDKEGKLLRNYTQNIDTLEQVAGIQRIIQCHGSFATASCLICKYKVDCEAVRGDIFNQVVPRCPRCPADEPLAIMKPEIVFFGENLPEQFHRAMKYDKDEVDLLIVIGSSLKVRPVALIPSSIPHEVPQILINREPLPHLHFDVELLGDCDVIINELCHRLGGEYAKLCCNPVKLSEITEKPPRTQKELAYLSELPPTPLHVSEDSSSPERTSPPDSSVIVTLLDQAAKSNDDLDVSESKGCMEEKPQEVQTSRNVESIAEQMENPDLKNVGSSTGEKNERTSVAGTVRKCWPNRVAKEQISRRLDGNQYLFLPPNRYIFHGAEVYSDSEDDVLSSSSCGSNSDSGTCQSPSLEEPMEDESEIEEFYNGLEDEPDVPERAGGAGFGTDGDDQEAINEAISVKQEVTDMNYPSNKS
# Assay: TAMRA based mass spectrometry assay of SIRT1 activity
# Assay type: biochemical
# Details: for Emax: read-out: TAMRA % Fold Act
# Source text: Mass spectrometry based assays were used to identify modulators of SIRT1 activity. The TAMRA based assay utilized a peptide having 20 amino acid residues as follows: Ac-EE-K(biotin)-[…](Ac)NleSTEG-K(5TMR)-EE-NH2 (SEQ ID NO: 1), wherein K(Ac) is an acetylated lysine residue and Nle is a norleucine. The peptide was labeled with the fluorophore 5TMR (excitation 540 nm/emission 580 nm) at the C-terminus. The sequence of the peptide substrate was based on p53 with several modifications. In addition, the methionine residue naturally present in the sequence was replaced with the norleucine because the methionine may be susceptible to oxidation during synthesis and purification. The Trp based assay utilized a peptide having an amino acid residues as follows: Ac-R-H-K-K(Ac)-W-NH2 (SEQ ID NO: 2).
# The TAMRA based mass spectrometry assay was conducted as follows: 0.5 μM peptide substrate and 120 μM βNAD^+ was incubated with 10 nM SIRT1 for 25 minutes at 25° C. in a reaction buffer (50 mM Tris-acetate pH 8, 137 mM NaCl, 2.7 mM KCl, 1 mM MgCl2, 5 mM DTT, 0.05% BSA). The SIRT1 protein was obtained by cloning the SirT1 gene into a T7-promoter containing vector, which was then transformed and expressed in BL21(DE3) bacterial cells. Test compound was added at varying concentrations to this reaction mixture and the resulting reactions were monitored. After the 25 minute incubation with SIRT1, 10 μL of 10% formic acid was added to stop the reaction. The resulting reactions were sealed and frozen for later mass spec analysis. Determination of the amount of deacetylated substrate peptide formed (or, alternatively, the amount of O-acetyl-ADP-ribose (OAADPR) generated) by the sirtuin-mediated NAD-dependent deacetylation reaction allowed for the precise measurement of relative SIRT1 activity in the presence of varying concentrations of the test compound versus control reactions lacking the test compound.
# A control for inhibition of sirtuin activity was conducted by adding 1 μL of 500 mM nicotinamide as a negative control at the start of the reaction (e.g., permits determination of maximum sirtuin inhibition). A control for activation of sirtuin activity was conducted using 10 nM of sirtuin protein, with 1 μL of DMSO in place of compound, to determine the amount of deacetylation of the substrate at a given time point within the linear range of the assay. This time point was the same as that used for test compounds and, within the linear range, the endpoint represents a change in velocity.
# For the above assay, SIRT1 protein was expressed and purified as follows. The SirT1 gene was cloned into a T7-promoter containing vector and transformed into BL21(DE3). The protein was expressed by induction with 1 mM IPTG as an N-terminal His-tag fusion protein at 18° C. overnight and harvested at 30,000×g. Cells were lysed with lysozyme in lysis buffer (50 mM Tris-HCl, 2 mM Tris[2-carboxyethyl]phosphine (TCEP), 10 μM ZnCl2, 200 mM NaCl) and further treated with sonication for […] for complete lysis. The protein was purified over a Ni-NTA column (Amersham) and fractions containing pure protein were pooled, concentrated and run over a sizing column (Sephadex S200 26/60 global). The peak containing soluble protein was collected and run on an Ion-exchange column (MonoQ). Gradient elution (200 mM-500 mM NaCl) yielded pure protein. This protein was concentrated and dialyzed against dialysis buffer (20 mM Tris-HCl, 2 mM TCEP) overnight. The protein was aliquoted and frozen at −80° C. until further use.
# [1] = TAMRA assay, concentration giving 150% activation of SIRT1
# [2] = TAMRA assay, percent maximum fold activation
# [3] = concentration of test compound giving 150% activation of SIRT1, TAMRA peptide substrate
# [4] = percent maximum fold activation of SIRT1, TAMRA peptide substrate
# [5] = TAMRA peptide substrate, concentration giving 150% activation of SIRT1
# [6] = TAMRA peptide substrate, percent maximum fold activation
SMILES,TAMRA EC1.5 (μM) [1],Emax [2],TAMRA EC1.5 (μM) [3],Emax [4],other results
Cc1ccc(NC(=O)c2c(C)nc3ccc(-c4ccccc4C(F)(F)F)nn23)nn1 [Compound 664],A (EC1.5<1 μM),≥ 350%,–,–,–
CS(=O)(=O)c1cccc(-c2ccc3ncc(C(=O)Nc4ccccn4)n3n2)c1 [Compound 12],–,–,C (EC1.5>25 μM),< 350%,–
O=C(Nc1cccc(N2CCCC2)n1)c1nnc2ccc(-c3ccccc3C(F)(F)F)nn12 [Compound 66],–,–,A (EC1.5<1 μM),≥ 350%,–
Cc1nc2ccc(-c3ccccc3C(F)(F)F)nn2c1NC(=O)c1cnccn1 [Compound 376],B (EC1.5 1-25 μM),< 350%,–,–,–
Cc1nc2c(C)cc(-c3ccccc3OC(F)(F)F)nn2c1C(=O)Nc1cccnn1 [Compound 479],–,–,–,–,TAMRA EC1.5 [5]: A (EC1.5<1 μM); Emax [6]: ≥ 350%
O=C(Nc1ncc(F)cc1F)c1cnc2ccc(-c3ccccc3C(F)(F)F)nn12 [Compound 111],–,–,B (EC1.5 1-25 μM),< 350%,–
O=C(Nc1cnc2ccc(-c3ccccc3C(F)(F)F)nn12)c1ccncc1 [Compound 87],–,–,C (EC1.5>25 μM),< 350%,–
O=C(Nc1cnc2ccc(-c3ccccc3F)nn12)c1cscn1 [Compound 298],B (EC1.5 1-25 μM),< 350%,–,–,–
O=C(Nc1cccc(CN2CCOCC2)n1)c1cnc2ccc(-c3c(F)cccc3Cl)nn12 [Compound 160],–,–,B (EC1.5 1-25 μM),≥ 350%,–
Cc1cc(C)nc(NC(=O)c2c(C)nc3c(C)cc(-c4ccccc4C(F)(F)F)nn23)c1 [Compound 429],–,–,–,–,TAMRA EC1.5 [5]: A (EC1.5<1 μM); Emax [6]: ≥ 350%
Cn1nccc1NC(=O)c1cnc2ccc(-c3ccccc3C(F)(F)F)nn12 [Compound 115],–,–,C (EC1.5>25 μM),< 350%,–
Cc1nc2ccc(-c3ccccc3C(F)(F)F)nn2c1C(=O)Nc1nccc(N2CCCC2)n1 [Compound 669],A (EC1.5<1 μM),≥ 350%,–,–,–
Cc1nc2ccc(-c3ccccc3Cl)nn2c1NC(=O)c1ncccn1 [Compound 349],C (EC1.5>25 μM),< 350%,–,–,–
Cc1cc(NC(=O)c2c(O)nc3ccc(-c4ccccc4C(F)(F)F)nn23)cc(C)n1 [Compound 341],C (EC1.5>25 μM),< 350%,–,–,–
Cc1cc2ncc(NC(=O)c3nccs3)n2nc1-c1ccccc1C(F)(F)F [Compound 446],–,–,–,–,TAMRA EC1.5 [5]: A (EC1.5<1 μM); Emax [6]: ≥ 350%
CCOc1ccc(NC(=O)c2c(C)nc3ccc(-c4ccccc4Cl)nn23)nn1 [Compound 744],A (EC1.5<1 μM),< 350%,–,–,–
"Cc1c(-c2ccccc2C(F)(F)F)nn2c(NC(=O)c3cccc(OCC(O)CO)n3)cnc2c1C (stereo not drawn) [Compound 422, 6-(2,3-dihydroxypropoxy)-N-(7,8-dimethyl-6-(2-(trifluoromethyl)phenyl)imidazo[1,2-b]pyridazin-3-yl)picolinamide]",–,–,–,–,TAMRA EC1.5 [5]: A (EC1.5<1 μM); Emax [6]: ≥ 350%
Cc1cc(-c2ccccc2C(F)(F)F)nn2c(C(=O)Nc3ccccn3)cnc12 [Compound 194],–,–,A (EC1.5<1 μM),≥ 350%,–
O=C(Nc1ncccn1)c1c(O)nc2ccc(-c3ccccc3C(F)(F)F)nn12 [Compound 342],C (EC1.5>25 μM),–,–,–,–

SMILES,TAMRA EC1.5 (μM) [1],Emax [2],TAMRA EC1.5 (μM) [3],Emax [4],other results
Cc1nn2ccc(-c3ccccc3C(F)(F)F)nc2c1NC(=O)c1cccc(O)n1 [Compound 575],–,–,–,–,TAMRA EC1.5 [5]: C (EC1.5>25 μM); Emax [6]: < 350%
Cc1cnc(C(=O)Nc2cnc3ccc(-c4ccccc4F)nn23)s1 [Compound 304],B (EC1.5 1-25 μM),< 350%,–,–,–
Cc1cc(-c2ccccc2C(F)(F)F)nn2c(C(=O)Nc3cccc(N4CC5(COC5)C4)n3)cnc12 [Compound 546],–,–,–,–,TAMRA EC1.5 [5]: A (EC1.5<1 μM); Emax [6]: ≥ 350%
O=C(Nc1cccc(CN2CCOCC2)n1)c1cnc2ccc(-c3cccc(F)c3)nn12 [Compound 28],–,–,A (EC1.5<1 μM),< 350%,–
Cc1ccnc(NC(=O)c2cnc3ccc(-c4ccccc4C(F)(F)F)nn23)n1 [Compound 270],A (EC1.5<1 μM),≥ 350%,–,–,–
Cc1cc(C(=O)Nc2cnn3ccc(-c4ccccc4C(F)(F)F)nc23)nc(C)n1 [Compound 795],A (EC1.5<1 μM),≥ 350%,–,–,–
Cc1cncc(NC(=O)c2cnn3ccc(-c4ccccc4C(F)(F)F)nc23)c1 [Compound 632],A (EC1.5<1 μM),≥ 350%,–,–,–
Cc1cccc(C(=O)Nc2cnc3ccc(-c4ccccc4C(F)(F)F)nn23)n1 [Compound 234],A (EC1.5<1 μM),≥ 350%,–,–,–
Cc1c(-c2ccccc2Cl)nn2c(NC(=O)c3cccc(OCC(O)CO)n3)cnc2c1C (stereo not drawn) [Compound 402],–,–,–,–,TAMRA EC1.5 [5]: A (EC1.5<1 μM); Emax [6]: ≥ 350%
O=C(Nc1cnc2ccc(-c3ccccc3F)nn12)c1ncccn1 [Compound 282],B (EC1.5 1-25 μM),< 350%,–,–,–
O=C(Nc1cnccn1)c1cnc2ccc(-c3ccccc3F)nn12 [Compound 139],–,–,B (EC1.5 1-25 μM),< 350%,–
"COc1nccc(NC(=O)c2c(C)nn3ccc(-c4ccccc4C(F)(F)F)nc23)n1 [Compound 793, N-(2-methoxypyrimidin-4-yl)-2-methyl-5-(2-(trifluoromethyl)phenyl)pyrazolo[1,5-a]pyrimidine-3-carboxamide]",A (EC1.5<1 μM),≥ 350%,–,–,–
O=C(Nc1ccncc1F)c1cnc2ccc(-c3ccccc3C(F)(F)F)nn12 [Compound 100],–,–,A (EC1.5<1 μM),≥ 350%,–
CC(CO)(CO)Oc1nccc(NC(=O)c2cnc3ccc(-c4ccccc4C(F)(F)F)nn23)n1 [Compound 278],B (EC1.5 1-25 μM),< 350%,–,–,–
O=C(Nc1nccs1)c1cnc2ccc(-c3cccc(OC(F)(F)F)c3)nn12 [Compound 7],–,–,B (EC1.5 1-25 μM),< 350%,–
O=C(Nc1cccnn1)c1cnc2ccc(-c3ccccc3C(F)(F)F)nn12 [Compound 79],–,–,B (EC1.5 1-25 μM),≥ 350%,–
Cc1scnc1C(=O)Nc1cnn2ccc(-c3ccccc3OC(F)(F)F)nc12 [Compound 756],B (EC1.5 1-25 μM),≥ 350%,–,–,–
Cc1cc(OCC(F)(F)F)nc(NC(=O)c2cnc3ccc(-c4ccccc4C(F)(F)F)nn23)n1 [Compound 310],A (EC1.5<1 μM),≥ 350%,–,–,–
Cc1cccc(NC(=O)c2cnc3c(C)cc(-c4ccccc4C(F)(F)F)nn23)n1 [Compound 539],–,–,–,–,TAMRA EC1.5 [5]: A (EC1.5<1 μM); Emax [6]: ≥ 350%
